The supplement of paper PMC12646585

Tested on: TK6
Assay: relative viability (MTT, 20-24 h post-exposure) vs solvent control; higher = less cytotoxic
Settings: exposure time: 4 h (S9 compounds: 3 h + 4 h recovery)
Procedure: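 Human TK6 lymphoblastoid cells were exposed for 4 h to three concentrations of each compound at four ring-trial labs. Compounds P, Q, R and CC were given for 3 h with rat liver S9 plus 4 h recovery. Relative survival was measured by MTT assay 20-24 h after exposure, as % viability relative to solvent control (mean with SD), in the Result 1 round with preselected concentrations.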

O.O=P1(N(CCCl)CCCl)NCCCO1 (stereo not drawn) [Cyclophosphamide]
relative viability [%]
Settings | batch: 4, lab: Lab 1 | batch: 4, lab: Lab 2 | batch: 4, lab: Lab 3 | batch: 4, lab: Lab 4
concentration: 2.22uM | 103 | 94.2 | 157 | 80.3
concentration: 6.67uM | 96.49 | 69 | 107 | 81.7
concentration: 20uM | 90.45 | 47.2 | 73.4 | 58.4

OC[C@@H](O)[C@@H](O)[C@H](O)[C@H](O)CO [D-Mannitol]
relative viability [%]
Settings | batch: 1, lab: Lab 1 | batch: 1, lab: Lab 2 | batch: 1, lab: Lab 3 | batch: 1, lab: Lab 4
concentration: 0.11mM | 90 | 97 | 145 | 110
concentration: 0.33mM | 98.7 | 104 | 137 | 107
concentration: 1mM | 103 | 104 | 139.3 | 107

C[C@@H]1C[C@H]2[C@@H]3CCC4=CC(=O)C=C[C@]4(C)[C@@]3(F)[C@@H](O)C[C@]2(C)[C@@]1(O)C(=O)CO [Dexamethasone]
relative viability [%]
Settings | batch: 3, lab: Lab 1 | batch: 3, lab: Lab 2 | batch: 3, lab: Lab 3 | batch: 3, lab: Lab 4
concentration: 0.11mM | 105 | 103 | 127 | 112
concentration: 0.33mM | 101 | 97.9 | 142 | 111
concentration: 1mM | 86.6 | 86.4 | 143 | 92.2

CCOS(C)(=O)=O [EMS (Ethyl methanesulfonate)]
relative viability [%]
Settings | batch: 2, lab: Lab 1 | batch: 2, lab: Lab 2 | batch: 2, lab: Lab 3 | batch: 2, lab: Lab 4
concentration: 0.22mM | 95.4 | 105 | 98.2 | 103
concentration: 0.67mM | 91.7 | 98.1 | 96.6 | 92.6
concentration: 2mM | 85.2 | 84.6 | 67.7 | 80.4
